Experimental findings from patent US6121284A, “2,3-bridged 1,4-dihydropyridines, and their use as medicaments” (Bayer Aktiengesellschaft, priority 1994, dated 2000) are described below.

The subject of the test is C6-BU1-glioma cells. Briefly: 86Rubidium efflux from C6-BU1-glioma cells. In kind it is cell-based. To be noted: Rattus norvegicus, C6-BU-1; 1 μM test substance applied; increase in 86Rb efflux above basal efflux caused by ionomycin set at 100%; read-out: residual efflux. The protocol:
^86 Rubidium Efflux from C6-BU1-glioma cells
The experiments were carried out in accordance with the method described by Tas et al. (Neurosci. Lett. 94, 279-284, (1988)), with slight changes. The increase in efflux above the basal efflux caused by ionomycin is calculated from the data and set at 100%. The stimulations in the presence of test substances are then based on this value.
In the case of `COC(=O)C1=C(C)N(C)C2=C(C(=O)OC2)C1c1ccc(Cl)cc1` (stereo not drawn) [Example 8, Methyl1,4,5,7-tetrahydro-4-(4-chlorophenyl)-1,2-dimethyl-7-oxo-furo-[3,4b]-pyridine-3-carboxylate], the activity at 1 µM was 53%.

`CC1=C(C(=O)OC(C)C)C(c2cccc(Cl)c2Cl)C2=C(CCCC2=O)N1C` (stereo not drawn) [Example 1, Isopropyl 4-(2,3-dichlorophenyl)-1,2-dimethyl-5-oxo-1,4,5,7,8-hexahydroquinoline-3-carboxylate]: the activity at 1 µM turned out to be 38%.

With `COC(=O)C1=C(C)N(C)C2=C(C(=O)OC2)C1c1cccc(F)c1F` (stereo not drawn) [Example 11, Methyl 1,4,5,7-tetrahydro-4-(2,3-difluorophenyl)-1,2-dimethyl-5-oxo-furo-[3,4b]-pyridine-3-carboxylate], the activity at 1 µM is 73%.
